Measured values reported in paper PMC7171691 (Journal of Tropical Medicine, 2020).
In brackets after ≈: the same amount, converted by molar mass. Entries after “also recorded” stand apart in the source; their conditions may differ. Like-named read-outs stand apart in the source and are kept apart here.

Legend:
[1] = system: P. berghei ANKA; assay: In vivo efficacy, 4-day oral treatment of infected mice; parameters: species or system Plasmodium berghei in female Swiss albino mice; conditions: for Average parasitaemia, Day 7 / Average parasitaemia, Day 9 / Average parasitaemia, Day 11: after stopping the treatment with 10 mg/kg; for Number of mice which survived up to 11 days: 5 mice per group; for ED50: P. berghei ANKA sensitive strain in mice, four days of oral treatment
Protocol: Female Swiss albino mice were collected and kept in the animal house of the Center for Biotechnology and Research Development at the Kenya Medical Research Institute (KEMRI), where the animal experiments were carried out. The animals were six weeks old, weighing 20 to 22 g, and they were kept in mice cages and were allowed to access mice pencils (Ungafeed Company Ltd) and water before experimental testing. Plasmodium berghei ANKA strains, sensitive to quinolone and artemisinin-based drugs, were obtained from the Unit of Malaria, Center for Biotechnology and Research and Development, Kenya Medical Research Institute. Parasites were maintained and cryopreserved in a freezer (−80°C). The parasite was subsequently maintained in the laboratory by serial blood passage from mouse to mouse on a weekly basis.
This consisted of in vivo evaluation of hybrid drug against P. berghei ANKA, a rodent parasite which is commonly used in antimalarial studies. Female Swiss albino donor mouse was injected intraperitoneally with 0.2 ml of inoculums of 1 × 10^7 parasitized erythrocytes, and P. berghei ANKA strain was obtained from the donor mouse. Parasitaemia was assessed after 5 days under microscope using the Giemsa staining technique. The donor mouse was sedated using carbon dioxide to collect blood via cardiac puncture in a heparinized tube using a syringe and a needle. Carcasses were pooled in a biohazard container and stored at room temperature while waiting to be incinerated. Afterward, the experimental mice were infected with inoculums of 1 × 10^7 parasitized erythrocytes using an intraperitoneal method. The mice were grouped into five groups consisting of 5 mice per group. […] Blood for making thin blood smear was collected from the tip of the mouse tail. The efficacy of the drug was measured by comparison of blood parasitaemia after the four days of therapy (i.e., on day 5 postinfection). The ones still alive at the end of the experiments were killed by using carbon dioxide gas followed by incineration.
The determination of the dose to be administered was calculated individually according to each mouse weight. In this regard, these formulas were applied: HED (mg/kg) = Animal Dose (mg/kg) ∗ [Animal km/Human km], where HED stands for human equivalent dose and km which is a conversion factor. With km (a constant) = Weight/Body surface area. For mice of 0.02 kg, with a body surface area of 0.007, km = 0.02/0.007 = 3 [15].(3) Dosage mg/kg =Drug concentration mg/ml∗Volume ml/Body weightkg.
From formula (2),(4) Volume ml of drug to be given to each mouse=Body weight kg∗Dosage mg/kg/Drug concentration mg/ml .
The parasitaemia was checked for every 24 hours from the time of infection for 4 days. Thin blood smears were prepared from each mouse tail venous blood. The smears were prepared by the Giemsa staining technique, and the parasitaemia of individual mouse had been checked using a light microscope. The following formula was used to calculate the percentage parasitaemia:(5) The Percentage of parasitaemia=Number of parasitized RBCs/field/Total number of RBCs/field ∗100.
After 4 days, the percentage (%) chemosuppression of each drug was determined using the following formula [17]:(6) Percentage chemosuppression= 100−A−B/A×100, where A is the mean parasitaemia in the negative control group and B is the parasitaemia in the test group. The dose that cured 50% of infected animals had been determined as effective dose (ED50) using a nonlinear regression logistic dose-response model.

[2] = parameters: method as in PMID 21189459; conditions: 20 mg/kg, oral route, mice; cited from earlier work
[3] = system: vero cells; conditions: cited from earlier work
[4] = system: P. falciparum 3D7 strains (CQ sensitive); assay: In vitro drug sensitivity, tritiated hypoxanthine incorporation assay; assay type: cell-based, Plasmodium falciparum; conditions: P. falciparum 3D7, CQ sensitive, [3H]hypoxanthine uptake, 48 hours
Protocol: Further dilutions were prepared on the day of biological assays. All the drug solutions were stored at 4°C for later use.

[5] = Solubility observations; assay type: physicochemical; conditions: water
[6] = system: acute falciparum malaria; conditions: patients, 0 to 250 mg artesunate together with a curative dose of mefloquine; cited from earlier work
[7] = parameters: method as in PMID 23433124; conditions: cited from earlier work
[8] = MTT cytotoxicity assay; assay type: cell-based, African green monkey (Cercopithecus aethiops); conditions: African green monkey (Cercopithecus aethiops)
Protocol: To conduct in vitro toxicity, stock solutions of the test compound and reference drugs were prepared with sterile water. […] The test samples were prepared as a 1 mg·ml^−1 stock solution. Further dilutions were prepared on the day of biological assays. All the drug solutions were stored at 4°C for later use. Vero cells (Vero E-6) were obtained from the Center for Traditional Medicine Drugs and Research (CTMDR), KEMRI. Vero cells are kidney cells extracted from an African green monkey (Cercopithecus aethiops). […] Cells were maintained in Minimum Essential Eagle's Medium (MEM) containing 10% fetal bovine serum (FBS), PenStrep, and glutamine. Vero cells were cultured using T-75 culture flasks. The flasks were kept at 37°C in 5% CO2, and the cells were passaged every 2 to 3 days to keep the cells alive. Trypsinization was carried out to detached cells which overlap each other and counted using a hemocytometer (Neubauer).
Using a 96-microwell plate, a cell density of 20,000 vero cells were seeded and incubated for 24 hours at 37°C under 5% CO2 to allow cells to attach to the surface/base of the plate. […] The plates were incubated for 48 hours at 37°C under 5% CO2 to allow the reaction to occur. After 48 hours, 0.5 mg/ml of 3-(4, 5-dimethylthiazol-2-yl)-2,5-diphenyltetra-zolium bromide (MTT) was added for calorimetric measurement of the ability of a drug to kill the vero cell lines. The plates were incubated at 37°C for 3 hours. 100 μL of 100% DMSO was added to each well and mixed to ensure cell lysis and dissolving of the formazan crystals. Doxorubicin was used as a control drug.
The amount of formazan measured was directly proportional to the number of viable cells.

[9] = 10 mg/kg oral, after 4 days of treatment

Compound	Percentage of chemosupression of parasitaemia [1, 9]	Average parasitaemia, Day 7 [1]	Average parasitaemia, Day 9 [1]	Average parasitaemia, Day 11 [1]	Number of mice which survived up to 11 days ([1]; dosage 0.625 mg/kg oral)	Number of mice which survived up to 11 days ([1]; dosage 1.25 mg/kg oral)	Number of mice which survived up to 11 days ([1]; dosage 2.5 mg/kg oral)	Number of mice which survived up to 11 days ([1]; dosage 5 mg/kg oral)	Number of mice which survived up to 11 days ([1]; dosage 10 mg/kg oral)	ED50 [1]	IC50 [4]	CC50 at 48 h [8]	other results
CCN(CC)CCCC(C)Nc1ccnc2cc(Cl)ccc12 (stereo not drawn) [Chloroquine]	100%	0.00%	0.03%	0.42%	3	3	4	4	5	–	–	–	Number of mice which survived up to 11 days ([1]; dosage 10 mg/kg oral, listed as chloroquine): all mice; Chemosupression [2]: 100%; Concentrations not revealing cytotoxicity effects [3]: ≤ 50 µg/mL; Concentrations showing major cytotoxicity [3]: ≥ 500 µg/mL
C[C@H]1[C@H](OC(=O)CCC(=O)Nc2ccc(Oc3ccc(Cl)cc3)c(Cl)c2)O[C@@H]2O[C@@]3(C)CC[C@H]4[C@H](C)CC[C@@H]1[C@@]24OO3 [Artesunate-aniline hybrid]	–	–	–	–	1	3	3	2	3	3.56 mg/kg	–	–	–
CNCC(=O)O [Sarcosine, N-methyl glycine]	–	–	–	–	0	1	1	2	1	did not show in vivo activity; also recorded: No activity	did not show in vitro activity; also recorded: No activity	–	ED50 ([1]; listed as sarcosine): not detectable; Solubility in water [5]: completely soluble
C[C@H]1[C@H](OC(=O)CCC(=O)O)O[C@@H]2O[C@@]3(C)CC[C@H]4[C@H](C)CC[C@@H]1[C@@]24OO3 [Artesunate]	100%	0.00%	0.2%	0.67%	2	3	4	3	5	–	–	19.7 µg/mL (≈ 51.2 µM)	Parasites observed under the microscope [1, 9]: No parasites were observed; ED50 ([1]; Plasmodium berghei, 96 h, read-out: ED50): 2.94 mg/kg; Number of mice which survived up to 11 days ([1]; dosage 10 mg/kg oral, listed as artesunate): all mice; IC50 ([4]; Plasmodium falciparum, read-out: IC50): 0.00263 ± 0.00038 µg/mL (≈ 0.00684 µM); ED50 [6]: 1.6 mg/kg; ED50 ([7]; intraperitoneal route): < 1 mg/kg; ED50 ([7]; oral route, artesunate with 80 mg/kg as highest dosage): 1.8 mg/kg
COc1cccc2c1C(=O)c1c(O)c3c(c(O)c1C2=O)C[C@@](O)(C(=O)CO)C[C@@H]3O[C@H]1C[C@H](N)[C@H](O)[C@H](C)O1 [Doxorubicin]	–	–	–	–	–	–	–	–	–	–	–	1.96 µg/mL (≈ 3.61 µM)	–
3-chloro-4-(4-chlorophenoxy) aniline	68%	6.97%	9.03%	11.84%	1	3	3	2	4	3.61 mg/kg	0.02286 ± 0.00126 µg/mL	–	–
